In ChEMBL document CHEMBL1201862, “PubChem BioAssay data set” (2004):
Activity calls are given as the source filed them.

Columns and labels:
[1] = target: T1, Replicative DNA helicase DnaB (Mycobacterium tuberculosis, UniProt P9WMR3); assay: DnaB intein splicing inhibitors, dose response, biochemical, cell-free fluorescence (AID 449749); type: functional
T1 sequence (P9WMR3 whole entry): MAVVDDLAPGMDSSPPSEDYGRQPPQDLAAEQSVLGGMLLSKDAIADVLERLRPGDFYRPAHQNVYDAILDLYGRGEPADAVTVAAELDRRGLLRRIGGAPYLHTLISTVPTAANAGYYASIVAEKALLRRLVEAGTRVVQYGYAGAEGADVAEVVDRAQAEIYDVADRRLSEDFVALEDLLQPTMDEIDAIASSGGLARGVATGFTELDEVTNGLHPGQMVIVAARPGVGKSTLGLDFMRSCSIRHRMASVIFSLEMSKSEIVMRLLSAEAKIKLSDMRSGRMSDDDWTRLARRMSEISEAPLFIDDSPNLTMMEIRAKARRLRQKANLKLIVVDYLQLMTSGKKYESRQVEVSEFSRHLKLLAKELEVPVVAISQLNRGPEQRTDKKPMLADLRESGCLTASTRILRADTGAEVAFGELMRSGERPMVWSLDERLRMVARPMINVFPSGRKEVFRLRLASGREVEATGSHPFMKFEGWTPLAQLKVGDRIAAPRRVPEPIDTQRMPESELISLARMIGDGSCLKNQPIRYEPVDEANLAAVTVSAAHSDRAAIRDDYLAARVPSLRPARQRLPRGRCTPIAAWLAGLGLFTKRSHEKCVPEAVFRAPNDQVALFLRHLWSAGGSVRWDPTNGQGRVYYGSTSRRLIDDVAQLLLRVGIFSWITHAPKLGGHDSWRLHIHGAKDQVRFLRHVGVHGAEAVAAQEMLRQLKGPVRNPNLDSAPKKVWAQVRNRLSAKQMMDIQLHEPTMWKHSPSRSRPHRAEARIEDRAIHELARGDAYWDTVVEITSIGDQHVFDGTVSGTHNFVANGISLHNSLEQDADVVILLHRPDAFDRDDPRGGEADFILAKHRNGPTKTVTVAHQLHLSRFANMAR

Protein RecA = target: T2, Protein RecA (Mycobacterium tuberculosis, UniProt P9WHJ3); assay: Fluorescence Cell-Free Homogeneous Dose Retest to Identify Inhibitors of RecA-Intein Splicing Activity. [Related pubchem assays (depositor defined):AID2097, AID2223, AID489010, AID492950]; type: functional
T2 sequence (P9WHJ3 whole entry): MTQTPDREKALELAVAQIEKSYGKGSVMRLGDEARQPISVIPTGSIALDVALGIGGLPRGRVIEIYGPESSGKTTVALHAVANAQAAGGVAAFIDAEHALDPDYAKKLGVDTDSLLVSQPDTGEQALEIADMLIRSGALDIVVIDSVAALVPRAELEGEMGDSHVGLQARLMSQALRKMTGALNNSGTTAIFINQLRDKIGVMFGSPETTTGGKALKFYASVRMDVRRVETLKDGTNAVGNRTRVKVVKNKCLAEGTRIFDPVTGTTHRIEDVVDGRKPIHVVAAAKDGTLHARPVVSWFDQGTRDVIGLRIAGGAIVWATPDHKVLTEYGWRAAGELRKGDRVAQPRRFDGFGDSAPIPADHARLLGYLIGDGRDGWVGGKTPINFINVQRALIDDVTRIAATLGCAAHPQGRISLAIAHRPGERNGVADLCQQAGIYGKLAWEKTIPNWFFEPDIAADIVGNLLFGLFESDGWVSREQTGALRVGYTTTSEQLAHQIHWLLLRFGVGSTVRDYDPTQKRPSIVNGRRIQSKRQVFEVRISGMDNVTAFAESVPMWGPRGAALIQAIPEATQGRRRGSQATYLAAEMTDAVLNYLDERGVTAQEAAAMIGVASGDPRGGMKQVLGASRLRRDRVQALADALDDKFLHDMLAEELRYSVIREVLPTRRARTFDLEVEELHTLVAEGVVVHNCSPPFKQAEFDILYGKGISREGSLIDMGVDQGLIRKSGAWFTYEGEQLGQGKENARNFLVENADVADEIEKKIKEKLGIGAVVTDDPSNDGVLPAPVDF

Cytochrome P450 2D6 = Cytochrome P450 2D6 (Homo sapiens, UniProt P10635);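 also: CYP2D6 member of a cytochrome P450 panel assay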
[2] = target: T3, Heat shock factor protein 1 (Mus musculus, UniProt P38532); assay: enhancement of HSF1-driven luciferase signal – cell-based, NIH3T3, luminescence, dose retest, confirmation (AID 435004); type: functional;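 also: stress induced by proteasome inhibitor MG132 added 30 min after compound; luciferase reporter driven by HSF1 response element in NIH3T3 cells; actives raise luminescence as potentiators of the MG132 stress response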
T3 sequence (P38532 whole entry): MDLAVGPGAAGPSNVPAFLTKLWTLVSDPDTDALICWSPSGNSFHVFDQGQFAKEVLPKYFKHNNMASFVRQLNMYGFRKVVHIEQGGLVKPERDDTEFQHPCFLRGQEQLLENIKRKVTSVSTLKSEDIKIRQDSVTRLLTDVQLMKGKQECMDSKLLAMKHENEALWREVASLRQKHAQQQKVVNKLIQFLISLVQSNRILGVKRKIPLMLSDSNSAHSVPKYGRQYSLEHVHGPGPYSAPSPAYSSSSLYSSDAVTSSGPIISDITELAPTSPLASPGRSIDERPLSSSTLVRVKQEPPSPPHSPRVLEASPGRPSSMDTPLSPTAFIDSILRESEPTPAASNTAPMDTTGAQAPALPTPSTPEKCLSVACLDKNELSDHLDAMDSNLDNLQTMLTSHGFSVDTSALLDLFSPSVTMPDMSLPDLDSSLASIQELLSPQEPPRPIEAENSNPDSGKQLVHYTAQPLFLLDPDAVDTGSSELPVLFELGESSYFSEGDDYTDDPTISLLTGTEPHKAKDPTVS

Cytochrome P450 2C19 = Cytochrome P450 2C19 (Homo sapiens, UniProt P33261); assay: Cytochrome panel assay with activity outcomes. Panel member name: p450-cyp2c19 Compounds with AC50 equal or less than 10 uM are considered active; type: functional; conditions: read-out: AC50
Cytochrome P450 3A4 = Cytochrome P450 3A4 (Homo sapiens, UniProt P08684);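 also: CYP3A4 tested as one member of a cytochrome P450 panel screen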
Cytochrome P450 2C9 = Cytochrome P450 2C9 (Homo sapiens, UniProt P11712)
[3] = viability of uninfected HEp-2 cells – cell-based, HTS, cytotoxicity control for RSV inhibitor project, dose response (AID 2410); type: functional; conditions: human respiratory syncytial virus
Streptokinase A = target: T4, Streptokinase A (Streptococcus pyogenes serotype M1, UniProt P10520); assay: viability-normalized secreted streptokinase activity reduction – plasminogen activation absorbance, OD405, dose response (AID 1914); type: functional, Streptococcus pyogenes M1 GAS;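 also: secreted streptokinase activity via plasminogen activation per viability signal from cell pellet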
T4 sequence (P10520 whole entry): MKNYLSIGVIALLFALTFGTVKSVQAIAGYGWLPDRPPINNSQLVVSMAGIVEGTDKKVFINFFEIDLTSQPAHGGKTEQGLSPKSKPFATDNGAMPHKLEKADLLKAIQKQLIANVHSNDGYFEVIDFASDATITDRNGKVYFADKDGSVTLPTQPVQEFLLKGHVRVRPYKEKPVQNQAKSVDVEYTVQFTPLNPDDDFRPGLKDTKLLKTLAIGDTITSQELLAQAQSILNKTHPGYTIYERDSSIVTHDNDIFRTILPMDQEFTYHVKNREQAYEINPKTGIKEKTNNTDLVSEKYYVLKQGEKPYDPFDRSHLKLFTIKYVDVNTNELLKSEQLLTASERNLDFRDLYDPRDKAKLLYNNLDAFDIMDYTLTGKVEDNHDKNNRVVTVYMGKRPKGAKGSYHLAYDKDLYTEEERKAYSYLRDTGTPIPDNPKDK

[4] = test system: Streptococcus sp. 'group A'; assay: Streptococcus pyogenes SK(-)GAS viability under kanamycin – luminescence, BacTiterGlo, confirmation, counter-screen for streptokinase expression inhibitor project, dose response (AID 1900); type: functional, organism-based
Streptococcus = assay: GAS UMAA2166 growth inhibition – luminescence, BacTiterGlo, counter-screen for streptokinase expression inhibitor project, dose response (AID 1915); type: functional, organism-based;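 also: potency for reduction of bacterial viability or growth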

Sequence of Cytochrome P450 2C9 (P11712 whole entry): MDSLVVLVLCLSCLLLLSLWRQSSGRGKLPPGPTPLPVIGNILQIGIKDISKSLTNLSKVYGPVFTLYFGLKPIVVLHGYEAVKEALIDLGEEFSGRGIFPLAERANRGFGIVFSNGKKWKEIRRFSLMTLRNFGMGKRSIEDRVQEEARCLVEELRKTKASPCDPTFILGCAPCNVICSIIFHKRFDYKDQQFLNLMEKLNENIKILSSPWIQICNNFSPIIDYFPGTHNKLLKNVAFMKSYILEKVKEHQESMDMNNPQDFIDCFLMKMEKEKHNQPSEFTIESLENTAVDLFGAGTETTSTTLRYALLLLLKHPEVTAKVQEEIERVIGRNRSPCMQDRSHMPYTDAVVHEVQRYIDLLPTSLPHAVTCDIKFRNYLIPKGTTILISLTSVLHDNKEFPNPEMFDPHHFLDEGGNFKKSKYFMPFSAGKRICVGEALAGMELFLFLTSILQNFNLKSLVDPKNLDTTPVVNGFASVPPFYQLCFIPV
Sequence of Cytochrome P450 2C19 (P33261 whole entry): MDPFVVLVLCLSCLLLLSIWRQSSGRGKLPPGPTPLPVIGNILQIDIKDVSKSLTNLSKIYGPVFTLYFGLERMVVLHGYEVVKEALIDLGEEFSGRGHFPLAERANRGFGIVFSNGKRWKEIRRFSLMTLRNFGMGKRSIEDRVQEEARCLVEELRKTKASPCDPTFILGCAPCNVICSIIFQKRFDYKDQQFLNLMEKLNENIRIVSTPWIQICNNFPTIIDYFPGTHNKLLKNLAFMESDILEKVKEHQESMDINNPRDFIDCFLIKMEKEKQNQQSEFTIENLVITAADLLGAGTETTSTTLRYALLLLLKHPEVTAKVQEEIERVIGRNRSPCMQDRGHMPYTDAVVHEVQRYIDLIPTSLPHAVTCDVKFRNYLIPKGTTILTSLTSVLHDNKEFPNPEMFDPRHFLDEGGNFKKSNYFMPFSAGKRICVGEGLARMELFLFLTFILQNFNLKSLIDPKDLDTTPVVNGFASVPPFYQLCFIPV
Sequence of Cytochrome P450 3A4 (P08684 whole entry): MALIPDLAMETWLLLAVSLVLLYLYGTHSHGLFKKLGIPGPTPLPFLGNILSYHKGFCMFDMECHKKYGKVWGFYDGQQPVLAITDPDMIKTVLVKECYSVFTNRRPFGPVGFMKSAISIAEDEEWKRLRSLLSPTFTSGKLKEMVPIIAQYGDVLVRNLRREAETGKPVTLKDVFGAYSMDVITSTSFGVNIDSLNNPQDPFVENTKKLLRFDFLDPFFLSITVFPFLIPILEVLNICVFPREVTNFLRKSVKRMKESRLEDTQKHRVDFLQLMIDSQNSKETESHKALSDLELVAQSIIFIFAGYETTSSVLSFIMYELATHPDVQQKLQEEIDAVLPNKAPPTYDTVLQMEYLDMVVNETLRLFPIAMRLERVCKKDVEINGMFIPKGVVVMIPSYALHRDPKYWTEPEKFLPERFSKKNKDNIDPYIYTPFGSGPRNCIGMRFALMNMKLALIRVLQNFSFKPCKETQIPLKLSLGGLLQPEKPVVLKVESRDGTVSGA
Sequence of Cytochrome P450 2D6 (P10635 whole entry): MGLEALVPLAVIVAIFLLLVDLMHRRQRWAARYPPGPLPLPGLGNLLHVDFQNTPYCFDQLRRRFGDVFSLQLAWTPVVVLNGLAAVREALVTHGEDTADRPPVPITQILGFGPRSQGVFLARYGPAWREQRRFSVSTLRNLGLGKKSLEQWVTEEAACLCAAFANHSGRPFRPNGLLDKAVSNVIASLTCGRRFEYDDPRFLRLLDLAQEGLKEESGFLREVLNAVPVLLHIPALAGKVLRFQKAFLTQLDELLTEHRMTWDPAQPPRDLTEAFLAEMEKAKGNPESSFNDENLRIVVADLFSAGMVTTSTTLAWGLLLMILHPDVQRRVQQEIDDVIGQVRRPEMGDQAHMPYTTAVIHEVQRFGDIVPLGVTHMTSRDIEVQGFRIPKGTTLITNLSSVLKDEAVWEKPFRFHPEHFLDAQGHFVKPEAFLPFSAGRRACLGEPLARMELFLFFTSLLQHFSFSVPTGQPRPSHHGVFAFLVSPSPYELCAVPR

O=C(/C=C/c1ccccc1)c1ccc2c3c(cccc13)CC2
AC50 [1]: > 380 µM (inactive)
EC50 (Protein RecA): 11.4 µM (active)

CN1CCN(c2ccnc(-c3ccoc3)n2)CC1
AC50 (Cytochrome P450 2D6): 39.8 µM (inconclusive)

COCCCNCCOc1ccc(C)cc1[N+](=O)[O-]
EC50 [2]: > 260 µM (inactive)

COc1ccc(C)cc1NC(=O)C/C(C)=N/NC(=O)Cc1cccc2ccccc12
EC50 [2]: > 260 µM (inactive)

COc1cccc(-c2ccc3ncnc(N4CCN(C)CC4)c3c2)c1
AC50 (Cytochrome P450 2D6): 39.8 µM (inconclusive)
AC50 (Cytochrome P450 2C19): 31.6 µM (inconclusive)

CCC/C=C(\CCC)C(NC(=O)c1ccc(C(F)(F)F)cc1)c1ccc(C(F)(F)F)cc1 (stereo unspecified)
AC50 (Cytochrome P450 3A4): 10 µM (inconclusive)

CC1=C(Nc2c(C)cc(O)cc2O)C(=O)C=c2oc3c(c21)C(C)=C(Nc1c(C)cc(O)cc1O)C(=O)C=3
AC50 (Cytochrome P450 2D6): 2.51 µM (inconclusive)

CC(=O)O[C@]12CC[N@+]3(C)CCCC[C@@H]3[C-]1Nc1ccccc12
AC50 (Cytochrome P450 2D6): 3.16 µM (inconclusive)

Cn1cccc1C(=O)N1CCC2(CCCN(Cc3ccccc3)C2)CC1
AC50 (Cytochrome P450 3A4): 31.6 µM (inconclusive)

Cc1ccc(S(=O)(=O)N[C@@H](CCc2ccccc2)CC(=O)C(C)(C)C)cc1
AC50 (Cytochrome P450 2D6): 3.16 µM (inconclusive)

O=C(O)c1c(Br)c(Br)c(Br)c(Br)c1C1c2ccc(O)cc2Oc2cc(O)ccc21
AC50 (Cytochrome P450 2C9): 7.94 µM (inconclusive)
AC50 (Cytochrome P450 3A4): 3.98 µM (inconclusive)

CCc1ccccc1NC(=O)COc1ccc2c(=O)c(Oc3cc(C)ccc3C)coc2c1
EC50 [2]: > 260 µM (inactive)

CC1=NN(c2ccccc2)C(=O)/C1=C/c1cn(C)c2ccccc12
AC50 [1]: 57.1 µM (active)
EC50 (Protein RecA): 39 µM (active)

COc1ccccc1N1CCN(C(=O)c2ccc3c(=O)n(Cc4ccco4)c(=S)[nH]c3c2)CC1
EC50 [2]: > 260 µM (inactive)

Cc1cccc(CN(C(S)=Nc2c(C)cccc2C)c2cccnc2)c1
EC50 [2]: > 260 µM (inactive)

CCOc1ccc(Cl)cc1C(c1c(C)n[nH]c1O)c1c(C)n[nH]c1O
AC50 [1]: 0.551 µM (active)
EC50 (Protein RecA): 0.221 µM (active)

CSc1nc(Sc2cccc(Cl)c2)c2ccccc2n1
AC50 (Cytochrome P450 3A4): 35.5 µM (inconclusive)

Cc1ccc(S(=O)(=O)n2cnc3ccccc32)cc1[N+](=O)[O-]
EC50 [2]: > 260 µM (inactive)

Cn1c(-c2sc(=S)n(-c3ccccc3)c2N)nc2ccccc21
AC50 (Cytochrome P450 2D6): 1.26 µM (inconclusive)

O=C(N/N=C/c1c[nH]c2ccc(Br)cc12)c1ccn(Cc2ccc(Cl)cc2)n1
AC50 (Cytochrome P450 2C9): 39.8 µM (inconclusive)
AC50 (Cytochrome P450 3A4): 3.98 µM (inconclusive)

N#C/C(=C(/O)CN1CCN(c2ccccc2F)CC1)c1nc(-c2ccccc2)cs1
CC50 [3]: 5 µM (active)
EC50 (Streptokinase A): > 150 µM (not active)
EC50 [4]: 11.7 µM (active)
EC50 (Streptococcus): 86.1 µM (active)

COc1ccc(C2CC3=Nc4ncnn4C(c4ccccc4)C3=C(O)C2)cc1 (stereo unspecified)
EC50 [2]: > 260 µM (inactive)

Clc1ccc(-c2nc(/C=N/N3CCOCC3)c3ccccn23)cc1
EC50 [2]: > 260 µM (inactive)

CCNc1ncc2ncc(=O)n(Cc3cccs3)c2n1
AC50 (Cytochrome P450 2C9): 15.8 µM (inconclusive)
AC50 (Cytochrome P450 2C19): 20 µM (inconclusive)
AC50 (Cytochrome P450 3A4): 20 µM (inconclusive)

COC(=O)c1ccc(C(NC(=O)c2ccccc2)[C@]2(C)C[C@H]2C2CCCCC2)cc1 (stereo partly specified)
AC50 (Cytochrome P450 3A4): 6.31 µM (inconclusive)

CN(C)CC(C)(C)CN1c2ccccc2Sc2ccccc21
AC50 (Cytochrome P450 2C19): 2 µM (inconclusive)
AC50 (Cytochrome P450 3A4): 5.01 µM (inconclusive)

CN(C)Cc1cc(C(F)(F)F)ccc1C(O)(c1ccccc1)c1ccccc1
AC50 (Cytochrome P450 2D6): 3.16 µM (inconclusive)

CC1=C(C)/C(=N\OC(=O)/C=C/c2ccccc2)C=CC1=O
AC50 [1]: > 380 µM (inactive)
EC50 (Protein RecA): 0.532 µM (active)

Oc1nc(CN2CC=C(c3ccccc3)CC2)nc2scc(-c3cccs3)c12
EC50 (Streptokinase A): > 150 µM (not active)
EC50 [4]: 12.2 µM (active)
EC50 (Streptococcus): > 150 µM (not active)

CC1(C)CC(=O)C/C(=N/NC(=O)CCCOc2ccc(Cl)cc2Cl)C1
EC50 [2]: > 260 µM (inactive)

CC(=O)c1ccc(NC(=O)CCCN2C(=O)/C(=C/C(C)=C/c3ccccc3)SC2=S)cc1
EC50 [2]: 106 µM (active)

CCOC(=O)C1=C(CN2CCc3ccccc32)NC(=O)NC1c1ccc(Cl)cc1 (stereo unspecified)
EC50 [2]: > 260 µM (inactive)

CCc1ccccc1N=C(S)NC1CC2CCC(C1)N2Cc1ccco1 (stereo unspecified)
AC50 (Cytochrome P450 2D6): 14.1 µM (inconclusive)
AC50 (Cytochrome P450 3A4): 20 µM (inconclusive)

Cc1ccc(-c2nc3ncccn3c2Nc2ccccc2C)o1
EC50 [2]: > 260 µM (inactive)

N#Cc1cccc(-c2cncnc2-n2ccnc2)c1
AC50 (Cytochrome P450 2D6): 39.8 µM (inconclusive)
AC50 (Cytochrome P450 2C19): 39.8 µM (inconclusive)

COc1cc2c(cc1NC(=O)COC(=O)[C@@H](NS(=O)(=O)c1ccccc1)C(C)C)oc1ccccc12
EC50 [2]: > 260 µM (inactive)

CC(C)Cn1c(C(C)C)nc([N+](=O)[O-])c1S(=O)(=O)c1ccc(F)cc1
AC50 [1]: 13.9 µM (active)
EC50 (Protein RecA): 9.69 µM (active)

O=C(c1ccc(Cl)c(Cl)c1)c1cc(-c2ccccn2)c(N2CCOCC2)s1
AC50 (Cytochrome P450 2D6): 10 µM (inconclusive)
